Columns and labels:
Format in all cases: cell-based
N-SMase = target: T1, N-SMase (Homo sapiens, UniProt Q9NY59); assay: Assay of N-SMase activity in primary human neurons; settings: activated astroglia-insulted human neurons, chemical inhibitors
T1 construct: endogenous in cells; host or cells: primary human neurons
T1 sequence (Q9NY59 1-655): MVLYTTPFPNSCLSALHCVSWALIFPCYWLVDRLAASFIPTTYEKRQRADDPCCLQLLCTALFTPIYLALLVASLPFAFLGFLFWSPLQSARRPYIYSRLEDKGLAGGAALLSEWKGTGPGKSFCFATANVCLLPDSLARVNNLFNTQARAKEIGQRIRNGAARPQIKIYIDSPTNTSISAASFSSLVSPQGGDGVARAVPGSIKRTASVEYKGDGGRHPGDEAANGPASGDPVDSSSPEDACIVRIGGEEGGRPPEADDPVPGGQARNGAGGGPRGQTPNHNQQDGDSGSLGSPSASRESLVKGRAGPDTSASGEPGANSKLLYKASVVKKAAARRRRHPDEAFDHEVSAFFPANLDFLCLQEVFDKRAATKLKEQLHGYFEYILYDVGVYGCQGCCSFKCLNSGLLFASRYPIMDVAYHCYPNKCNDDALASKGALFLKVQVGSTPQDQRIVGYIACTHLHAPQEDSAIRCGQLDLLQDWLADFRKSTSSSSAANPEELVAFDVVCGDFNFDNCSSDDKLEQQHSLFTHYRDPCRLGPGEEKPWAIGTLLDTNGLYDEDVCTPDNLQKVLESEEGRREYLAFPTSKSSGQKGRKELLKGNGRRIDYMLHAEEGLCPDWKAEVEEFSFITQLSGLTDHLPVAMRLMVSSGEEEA
Procedure: Activities of SMase(s) were assayed as described by. Briefly, after treatment, the cells were washed with PBS, harvested in PBS, divided into two halves, and centrifuged. The fraction for N-SMase was resuspended in buffer A (100 mM Tris-HCl, pH 7.4, 0.1% Triton X-100, 1 mM EDTA, and protease inhibitors), and the cell suspension was sonicated and centrifuged at 500×g at 4° C. for 5 min. The supernatant was used as the enzyme source for N-SMase. The reaction mixture contained enzyme preparation in buffer A containing 5 nmol of [^14C] sphingomyelin, 5 nmol of phosphatidylserine, 5 mM dithiothreitol, and 5 mM MgC¾ in a final volume of 100 μl. Similarly, the fraction for A-SMase was resuspended in buffer B (100 mM sodium acetate, pH 5.0, 0.1% Triton X-100, and protease inhibitors). The cell suspension was sonicated and centrifuged. The supernatant was used as the source of A-SMase. The activity of A-SMase was measured in a 100-μl reaction mixture consisting of the enzyme preparation in buffer B and 5 nmol of [^14C] sphingomyelin. The enzyme reaction was initiated by the addition of 50 μl of substrate and stopped by the addition of 1.5 ml of chloroform:methanol (2:1, v/v) and 0.2 ml of water. After vortexing and phase separation, the aqueous phase was removed for counting.
In FIGS. 3A-3E, primary human astrocytes seeded in inserts were stimulated by the combination of Aβ and IL-Iβ as described above. After 24 h, media were removed and inserts were washed and placed on neurons that were pretreated with PTIO for 30 min. In FIG. 3A, after 1 h, activity of N-SMase was measured in total cell extracts of neurons as described above. After 18 h, neuronal viability was examined by the metabolism of MTT (FIG. 3B) and the release of LDH (FIG. 3C). Values obtained from the control group served as 100%, and data obtained in other groups were calculated as percent of control accordingly. Results are mean+S.D. of three different experiments. ^ap<0.001 vs control; ^bp<0.001 vs activated astrocytes. Primary human neurons were treated with 25 μM DETA-NONOate (a NO donor) and at different time points of treatment, activities of N-SMase (FIG. 3D) and A-SMase (FIG. 3E) were monitored. ^ap<0.001 vs control (0 h).

A-SMase = target: T2, A-SMase (Homo sapiens, UniProt P17405); assay: Assay of A-SMase activity in primary human neurons; settings: activated astroglia-insulted human neurons, chemical inhibitors
T2 construct: The supernatant was used as the source of A-SMase; endogenous in cells; host or cells: primary human neurons
T2 sequence (P17405 47-631): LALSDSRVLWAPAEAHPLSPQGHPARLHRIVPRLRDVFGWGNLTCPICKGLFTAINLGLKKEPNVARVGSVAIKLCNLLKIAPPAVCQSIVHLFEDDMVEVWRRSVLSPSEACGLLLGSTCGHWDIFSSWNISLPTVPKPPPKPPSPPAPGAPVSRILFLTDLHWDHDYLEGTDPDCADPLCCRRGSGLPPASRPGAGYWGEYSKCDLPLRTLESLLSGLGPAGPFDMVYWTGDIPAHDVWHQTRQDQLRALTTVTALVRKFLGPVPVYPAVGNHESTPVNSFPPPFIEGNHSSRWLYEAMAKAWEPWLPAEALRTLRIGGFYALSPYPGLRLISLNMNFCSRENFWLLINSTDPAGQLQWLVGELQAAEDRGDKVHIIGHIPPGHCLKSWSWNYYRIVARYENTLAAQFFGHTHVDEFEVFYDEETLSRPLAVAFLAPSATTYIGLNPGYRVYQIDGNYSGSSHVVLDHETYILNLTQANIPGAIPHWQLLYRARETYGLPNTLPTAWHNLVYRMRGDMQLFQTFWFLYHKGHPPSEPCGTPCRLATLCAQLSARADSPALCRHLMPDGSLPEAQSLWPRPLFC
Procedure: Activities of SMase(s) were assayed as described by. Briefly, after treatment, the cells were washed with PBS, harvested in PBS, divided into two halves, and centrifuged. The fraction for N-SMase was resuspended in buffer A (100 mM Tris-HCl, pH 7.4, 0.1% Triton X-100, 1 mM EDTA, and protease inhibitors), and the cell suspension was sonicated and centrifuged at 500×g at 4° C. for 5 min. The supernatant was used as the enzyme source for N-SMase. The reaction mixture contained enzyme preparation in buffer A containing 5 nmol of [^14C] sphingomyelin, 5 nmol of phosphatidylserine, 5 mM dithiothreitol, and 5 mM MgC¾ in a final volume of 100 μl. […] The activity of A-SMase was measured in a 100-μl reaction mixture consisting of the enzyme preparation in buffer B and 5 nmol of [^14C] sphingomyelin. […]
In FIGS. 3A-3E, primary human astrocytes seeded in inserts were stimulated by the combination of Aβ and IL-Iβ as described above. […] In FIG. 3A, after 1 h, activity of N-SMase was measured in total cell extracts of neurons as described above. […] Values obtained from the control group served as 100%, and data obtained in other groups were calculated as percent of control accordingly. […] Primary human neurons were treated with 25 μM DETA-NONOate (a NO donor) and at different time points of treatment, activities of N-SMase (FIG. 3D) and A-SMase (FIG. 3E) were monitored. ^ap<0.001 vs control (0 h).

primary human astroglia = assay: NO synthesis (nitrite, Griess reagent) in primary human astroglia; settings: astroglia preincubated 30 min with different concentrations of chemical inhibitor; nitrite after 24 h
Procedure: Synthesis of NO was determined by assay of culture supernatants for nitrite, a stable reaction product of NO with molecular oxygen, using Griess reagent as described.
After 24 h of stimulation, the concentration of nitrite was measured in supernatants (FIG. 4A) by Griess reagent. […] Cells were treated with ASO/ScO for 40 h followed by stimulation with the combination of fibrillar Aβ and IL-Iβ as above. After 6 h, the expression of iNOS mRNA was analyzed by both semi-quantitative RT-PCR (C) and quantitative real-time PCR (FIG. 4D). The expression of TNF-a, IL-6 and IL-Iβ mRNAs were analyzed by semi-quantitative RT-PCR (FIG. 4E). Results are mean±SD of three different experiments. ^ap<0.001 vs control; ^bp<0.001 vs (Aβ+IL-Iβ).

activity of N-SMase (N-SMase): but not N-SMase | activity of A-SMase (A-SMase): inhibited
Structure (SMILES): CN(C)CCCN1c2ccccc2CCc2ccccc21 [imipramine]
(Aβ+IL-1β)-induced production of NO (primary human astroglia): showed no effect

From patent publication US9006205B2, “Antisense oligonucleotides against neutral sphingomyelinase and neutral sphingomyelinase inhibitor GW4869 for degenerative neurological disorders” (Rush University Medical Center, priority 2011, dated 2015)
